Values joined by “and” are separate entries in the source; they are usually repeats but may differ in a detail not shown here. Identical values can stand only once. Inconclusive results and toxic doses are left out. How the source made its calls: active means survival T/C of 150% or more; inactive means T/C below 125% in these data.
System: P388 leukemia ip, CD2F1 mice, survival T/C
Assay: NCI In Vivo Anticancer Drug Screen. Data for tumor model P388 Leukemia (intraperitoneal) in CD2F1 (CDF1) mice
Conditions: endpoint: median survival time, higher = longer survival
Method in brief: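 Mice carrying the transplanted tumor received test compound or vehicle. Survival was recorded in each group, and the value is the treated-group measurement divided by that of the vehicle-treated control group.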

[1] = dose: 50.0 mg/kg/injection, schedule: Q01DX009 (ip), vehicle: Klucel (hydroxypropylcellulose) (HPC)
[2] = dose: 100.0 mg/kg/injection, schedule: Q01DX009 (ip), vehicle: Klucel (hydroxypropylcellulose) (HPC)
[3] = dose: 200.0 mg/kg/injection, schedule: Q01DX009 (ip), vehicle: Klucel (hydroxypropylcellulose) (HPC)
[4] = dose: 50.0 mg/kg/injection, schedule: Q01DX009 (ip), vehicle: saline
[5] = dose: 100.0 mg/kg/injection, schedule: Q01DX009 (ip), vehicle: saline
[6] = dose: 60.0 mg/kg/injection, schedule: Q01DX005 (ip), vehicle: saline with Tween-80
[7] = dose: 120.0 mg/kg/injection, schedule: Q01DX005 (ip), vehicle: saline with Tween-80
[8] = dose: 240.0 mg/kg/injection, schedule: Q01DX005 (ip), vehicle: saline with Tween-80
[9] = dose: 100.0 mg/kg/injection, schedule: Q04DX003 (ip), vehicle: saline with Tween-80
[10] = dose: 200.0 mg/kg/injection, schedule: Q04DX003 (ip), vehicle: saline with Tween-80
[11] = dose: 50.0 mg/kg/injection, schedule: Q01DX005 (ip), vehicle: saline
[12] = dose: 100.0 mg/kg/injection, schedule: Q01DX005 (ip), vehicle: saline
[13] = dose: 200.0 mg/kg/injection, schedule: Q01DX005 (ip), vehicle: saline
[14] = dose: 50.0 mg/kg/injection, schedule: Q01DX005 (ip), vehicle: Klucel (hydroxypropylcellulose) (HPC)
[15] = dose: 100.0 mg/kg/injection, schedule: Q01DX005 (ip), vehicle: Klucel (hydroxypropylcellulose) (HPC)
[16] = dose: 200.0 mg/kg/injection, schedule: Q01DX005 (ip), vehicle: Klucel (hydroxypropylcellulose) (HPC)

Measured: T/C

CCCCCC(O)CC(O)CC(=O)CCCC(=O)CC(O)CC(=O)CCCCCC(O)CC(O)CC(=O)CCCC(=O)CC(O)CC(=O)CCCC(C)=O (configuration not stated) (tested in a mixture with another compound)
inactive: dose: 0.62 mg/kg/injection, schedule: Q01DX005 (ip), vehicle: DMSO 91 % of control | dose: 1.25 mg/kg/injection, schedule: Q01DX005 (ip), vehicle: DMSO 91 % of control | dose: 2.5 mg/kg/injection, schedule: Q01DX005 (ip), vehicle: DMSO 90 % of control | dose: 5.0 mg/kg/injection, schedule: Q01DX005 (ip), vehicle: DMSO 92 % of control | dose: 10.0 mg/kg/injection, schedule: Q01DX005 (ip), vehicle: DMSO 100 % of control | dose: 20.0 mg/kg/injection, schedule: Q01DX005 (ip), vehicle: DMSO 93 % of control

Cc1ccccc1C1C(C#N)C(=O)NC(=O)C1C#N (configuration not stated)
inactive: [1] 102 % of control | [2] 106 % of control | [3] 110 % of control

CC1(C)NC(=S)N(O)C1(C)C
inactive: [4] 111 % of control | [5] 98 % of control

COc1cc2nnn(-c3ccncc3)c2cc1OC
inactive: dose: 25.0 mg/kg/injection, schedule: Q01DX009 (ip), vehicle: other 100 % of control | dose: 50.0 mg/kg/injection, schedule: Q01DX009 (ip), vehicle: other 93 % of control | dose: 100.0 mg/kg/injection, schedule: Q01DX009 (ip), vehicle: other 99 % of control | dose: 200.0 mg/kg/injection, schedule: Q01DX009 (ip), vehicle: other 96 % of control | dose: 400.0 mg/kg/injection, schedule: Q01DX009 (ip), vehicle: other 96 % of control

Cc1ccc(O)c(C2CC(C#N)CCN2C)c1 (configuration not stated)
inactive: [6] 98 % of control | [7] 100 % of control | [8] 105 % of control

C/C(=C/c1cc2c(cc1Br)OCO2)[N+](=O)[O-]
inactive: [9] 108 % of control | [10] 118 % of control

CCCCCC(=O)NCC(=O)OC
inactive: [11] 100 % of control | [12] 101 % of control | [13] 100 % of control

COC1OC2COC(c3ccccc3)OC2C(N=Cc2ccccc2)C1O (configuration not stated)
inactive: [6] 104 % of control | [7] 103 % of control | [8] 100 % of control

OCCOCCSCCOCCO
inactive: [11] 100 % of control | [12] 100 % of control | [13] 102 % of control

N=C(N)c1ccc(OCCCCCCOc2ccc(C(=N)N)cc2I)cc1
inactive: dose: 3.12 mg/kg/injection, schedule: Q01DX005 (ip), vehicle: Klucel (hydroxypropylcellulose) (HPC) 97 % of control | dose: 6.25 mg/kg/injection, schedule: Q01DX005 (ip), vehicle: Klucel (hydroxypropylcellulose) (HPC) 106 % of control | dose: 12.5 mg/kg/injection, schedule: Q01DX005 (ip), vehicle: Klucel (hydroxypropylcellulose) (HPC) 107 % of control and 97 % of control

CCN1C(=O)c2cccc([N+](=O)[O-])c2C1=O
inactive: [2] 101 % of control | [3] 104 % of control

C[n+]1cc2ccccc2c2ccccc21
inactive: dose: 3.13 mg/kg/injection, schedule: Q01DX009 (ip), vehicle: saline 108 % of control | dose: 6.25 mg/kg/injection, schedule: Q01DX009 (ip), vehicle: saline 117 % of control | dose: 12.5 mg/kg/injection, schedule: Q01DX005 (ip), vehicle: saline 100 % of control | dose: 12.5 mg/kg/injection, schedule: Q01DX009 (ip), vehicle: saline 120 % of control | dose: 25.0 mg/kg/injection, schedule: Q01DX005 (ip), vehicle: saline 110 % of control | dose: 25.0 mg/kg/injection, schedule: Q01DX009 (ip), vehicle: water 122 % of control | [11] 101 % of control | dose: 50.0 mg/kg/injection, schedule: Q01DX009 (ip), vehicle: water 113 % of control

OC(CO/N=C1\CCc2ccccc21)CN1CCOCC1 (configuration not stated)
inactive: [11] 105 % of control | [12] 104 % of control | [13] 104 % of control

Clc1ccc(Cl)c(N=NNc2cc(Cl)ccc2Cl)c1
inactive: dose: 12.5 mg/kg/injection, schedule: Q01DX009 (ip), vehicle: saline with Tween-80 96 % of control | dose: 25.0 mg/kg/injection, schedule: Q01DX009 (ip), vehicle: saline with Tween-80 99 % of control | dose: 25.0 mg/kg/injection, schedule: Q01DX009 (ip), vehicle: saline 98 % of control | dose: 50.0 mg/kg/injection, schedule: Q01DX009 (ip), vehicle: saline with Tween-80 97 % of control | [4] 94 % of control | dose: 100.0 mg/kg/injection, schedule: Q01DX009 (ip), vehicle: saline with Tween-80 98 % of control | [5] 92 % of control | [9] 104 % of control | dose: 200.0 mg/kg/injection, schedule: Q01DX009 (ip), vehicle: saline with Tween-80 88 % of control | dose: 200.0 mg/kg/injection, schedule: Q01DX009 (ip), vehicle: saline 92 % of control | [10] 104 % of control | dose: 400.0 mg/kg/injection, schedule: Q04DX003 (ip), vehicle: saline with Tween-80 95 % of control

Cc1ccc(S(=O)(=O)N(C)C)cc1NC1=NCCO1
inactive: dose: 50.0 mg/kg/injection, schedule: Q01DX001 (ip), vehicle: saline with Tween-80 95 % of control | dose: 100.0 mg/kg/injection, schedule: Q01DX001 (ip), vehicle: saline with Tween-80 95 % of control | dose: 200.0 mg/kg/injection, schedule: Q01DX001 (ip), vehicle: saline with Tween-80 100 % of control

CCCCCCCCCCCCCN1CCS(=O)(=O)CC1
inactive: [1] 98 % of control | [2] 94 % of control | [3] 89 % of control

CC1CN(CC#CCN2C(=O)CCC2=O)CC(C)O1 (configuration not stated)
inactive: dose: 25.0 mg/kg/injection, schedule: Q01DX005 (ip), vehicle: Klucel (hydroxypropylcellulose) (HPC) 103 % of control | [14] 107 % of control | [15] 103 % of control | [16] 107 % of control

C=CCOC(CCC)OCC=C
inactive: [1] 97 % of control | [2] 97 % of control

C/C(=C\C(=O)Nc1ccc(S(=O)(=O)F)cc1)c1ccc([N+](=O)[O-])cc1
inactive: [6] 100 % of control | [7] 102 % of control | [8] 90 % of control

COc1cc([C@H]2c3c(cc(OC)c(OC)c3OC)CC3COC(=O)[C@@H]32)cc(Br)c1O (some centres not stated)
inactive: [6] 101 % of control | [7] 95 % of control | [8] 98 % of control

Nc1ccnc(Sc2ncccc2[N+](=O)[O-])n1
inactive: [14] 100 % of control | [15] 100 % of control | [16] 93 % of control

CC(C)C(=O)NCc1ccccc1Sc1ccccc1CNC(=O)C(C)C
inactive: dose: 100.0 mg/kg/injection, schedule: Q04DX002 (ip), vehicle: saline with Tween-80 90 % of control | dose: 200.0 mg/kg/injection, schedule: Q04DX002 (ip), vehicle: saline with Tween-80 90 % of control | dose: 400.0 mg/kg/injection, schedule: Q04DX002 (ip), vehicle: saline with Tween-80 91 % of control

COC(=O)c1nc(N)nc(C(=O)OC)c1C(=O)c1ccncc1
inactive: dose: 60.0 mg/kg/injection, schedule: Q01DX005 (ip), vehicle: Klucel (hydroxypropylcellulose) (HPC) 92 % of control | dose: 120.0 mg/kg/injection, schedule: Q01DX005 (ip), vehicle: Klucel (hydroxypropylcellulose) (HPC) 96 % of control

CCN(CC)C(C)=S
inactive: [6] 103 % of control | [7] 110 % of control | [8] 104 % of control

— PubChem BioAssay AID330 (DTP/NCI, 2004)
